Assay [1] has as its system A549, H157, Calu-1 and H292 cells. The experiment in a line: GFP-LC3 autophagosome quantification. Format: cell-based, human. The note with it: 48 h. The method, then: After 24 h, cells were treated with KRA-533 for 48 h. The percentages of LC3-GFP-transfected cells bearing LC3-GFP aggregates (LC3-FGPvac) were quantified as shown.
(§1) Activated KRAS can trigger cell death via apoptosis and autophagy-associated cell death in cancer cells. To test whether KRA-533- activated KRAS promotes apoptosis and autophagic cell death, A549, H157, Calu-1 and H292 cells were treated with increasing concentrations of KRA-533 for 48 h, followed by analysis of KRAS activity, apoptosis and autophagy. […] Autophagy was measured by analysis of LC3-I/LC3-II and p62 following treatment of cells with KRA-533. It is well known that p62 is an autophagy receptor or substrate that can be degraded by autophagy. In addition to LC3-II, p62 was analyzed as another autophagy marker. […] To further quantify the level of autophagy, a GFP-LC3 construct was used to indicate autophagosomes. After treatment with KRA-533, GFP-LC3 redistributed from a diffuse staining pattern in the cytoplasm and nucleus to a cytoplasmic punctate structure that specifically labels pre-autophagosomal and autophagosomal membranes (i.e. GFP-LC3 vac cells). […] These findings indicate that, in addition to apoptosis, KRA-533 can also induce autophagic cell death.

The target of another assay is T1, KRAS K117A (Homo sapiens, UniProt P01116, K117A).
T1 construct: made in house
The experiment in a line: Thermal shift assay, purified KRAS K117A. Format: binding. The procedure: (§2) Melting temperature (Tm) values of DMSO control and 15 μM KRA-533 are shown.
(§3) To further test this intracellularly, GFP-tagged WT, S17A, K117A and AA KRAS mutants were exogenously transfected into A549 cells. […] Activities of exogenous GFP-tagged WT and KRAS mutants were analyzed by Western blot using GFP antibody.

The next assay has as its system A549 and H157 cells. The experiment in a line: Western blot of autophagy marker p62 with or without chloroquine. Format: cell-based, human. The settings on record: 48 h. The method, then: To assess whether the autophagy inhibitor regulates KRA-533-induced autophagy formation, A549 and H157 cells were treated with KRA-533 in the absence or presence of autophagy inhibitor chloroquine for 48 h, followed by Western blot analysis of the autophagy marker p62.
For orientation: In western blotting, separated proteins are transferred to a membrane and probed.

Assay [2] concerns A549, H157, Calu-1 and H292 cells. The experiment in a line: Apoptosis by FACS analysis of Annexin V/PI staining. Format: cell-based, human. The procedure: as §1
The target of the next assay is T2, KRAS S17A/K117A (AA) (Homo sapiens, UniProt P01116, K117A/S17A).
T2 construct: made in house
The experiment in a line: Thermal shift assay, purified KRAS S17A/K117A (AA). Format: binding. The method, then:
as §2, §3

Another assay deals with KRAS. Nature of the assay: KRAS-GTP pull-down by Raf-1-RBD and Western blot in lung cancer cell lines. Format: cell-based, human. The settings on record: 48 h. The method, then:
(§4) “0” means DMSO vehicle control. […] Expression levels of KRAS, pERK, active caspase 3, PARP cleavage, Beclin1, LC3-I and LC3-II in total lysate were analyzed by Western blot.
A library containing small molecules from the National Cancer Institute (NCI) was employed to dock the GTP/GDP binding pocket of KRAS (PDB ID code: 4EPT) using the University of California, San Francisco (UCSF) DOCK 6.1 program suite. The small molecules were ranked according to their energy scores. Top 500 small molecules with predicted binding energies were selected for screening of cytotoxicity in human lung cancer cells by sulforhodamine B (SRB) assay. […] This lead compound was named KRAS agonist-533 (KRA-533) (FIG. 1A). To test whether KRA-533 regulates KRAS activity in lung cancer cells, human lung cancer cell lines with or without KRAS mutation were treated with KRA-533 (10 μM) for 48 h. […] Cell proliferation was also measured following treatment of cells for 48 h using MTS Cell Proliferation Colorimetric Assay Kit.
as §1

For the next assay, the target named is T3, GFP-tagged KRAS S17A (Homo sapiens, UniProt P01116, S17A).
T3 construct: expressed in transfected cells; host or cells: A549
Nature of the assay: Raf-1-RBD pull-down of exogenous GFP-tagged KRAS S17A in A549 cells. Format: cell-based. The note with it: 15 μM, 48 h. The method, then:
The GFP-tagged exogenous KRAS-GTP (GFP-KRAS-GTP) was analyzed by Western blot using anti-GFP antibody.
as §3

A further assay concerns the target T4, KRAS S17A (Homo sapiens, UniProt P01116, S17A).
T4 construct: made in house
The experiment in a line: Thermal shift assay, purified KRAS S17A. Format: binding. The procedure: as §2, §3

The target in the next assay is WT KRAS (Homo sapiens, UniProt P01116). The experiment in a line: In vitro cell-free GDP-GTP exchange, WT KRAS. Format: biochemical. The settings on record: with GEF (RASGRP1) and GAP (RASA1), 25° C., 60 min. The procedure: (§5) GTPγS, purified GFP (RASGRP1, 180 nM) and GAP (RASA1, 180 nM) at 25° C. in the presence or absence of increasing concentrations of KRA-533.
GTPγS, purified GFP (RASGRP1, 180 nM) and GAP (RASA1, 180 nM) at 25° C. in the presence or absence of 15 μM KRA-533. The radioactivity remaining on the protein after intensive washing was quantified by liquid scintillation.
(§6) To test whether KRA-533 directly binds to KRAS, a thermal shift assay was employed. […] To further assess whether KRA-533 activates KRAS directly, an in vitro cell-free GDP-GTP exchange experiment was carried out. Purified WT, G12C, G12D or G13D mutant KRAS proteins were incubated with purified GEF (RASGRP1) and GAP (RASA1) proteins in reaction buffer containing [γ-35S]-GTP in the absence or presence of increasing concentrations of KRA-533 at 25° C. for 60 min. KRAS activity was quantified by liquid scintillation counting. […] These findings indicate that KRA-533 not only activates WT KRAS but also has the capacity to further enhance KRAS activity of mutant KRAS.
as §3

The target in assay [3] is T5, KRAS G13D (Homo sapiens, UniProt P01116, G13D). The experiment in a line: Thermal shift assay, purified KRAS G13D. Format: binding. The settings on record: increasing concentrations. The method, then:
(§7) Melting temperature (Tm) values of DMSO Ctrl and 15 μM of KRA-533 are shown.
as §6

In assay [4] the target is T6, KRAS G12D (Homo sapiens, UniProt P01116, G12D). Nature of the assay: Thermal shift assay, purified KRAS G12D. Format: binding. The note with it: increasing concentrations. The method, then:
as §7, §6

Assay [5] concerns the target T5, KRAS G13D. Nature of the assay: In vitro cell-free GDP-GTP exchange, KRAS G13D. Format: biochemical. The note with it: with GEF (RASGRP1) and GAP (RASA1), 25° C., 60 min. The method, then:
as §5, §6

For assay [6], the system named is A549, H157, Calu-1 and H292 cells. The experiment in a line: Western blot of pERK, apoptosis and autophagy markers in total lysate. Format: cell-based, human. The note with it: 0, 5, 10, 15 μM, 48 h. The method, then: as §4, §1
Assay [7] deals with T6, KRAS G12D. The experiment in a line: In vitro cell-free GDP-GTP exchange, KRAS G12D. Format: biochemical. The note with it: with GEF (RASGRP1) and GAP (RASA1), 25° C., 60 min. The procedure:
as §5, §6

SMILES strings stand for the structures. “Also recorded” adds a separate entry of the source.

Data on one molecule can be found in US12144791B2, “KRAS agonists, pharmaceutical compositions, and uses in managing cancer” (Emory University, priority 2019, dated 2024).

Turning to `O=C(CBr)NCCCCc1ccc(C(=O)O)cc1` [KRA-533, 4-(4-(2-bromoacetamido)butyl)benzoic acid], the “percentage of GFP-LC3vac cells” value in assay [1] was “enhanced the percentage of GFP-LC3vac cells in a dose-dependent manner”. On KRAS K117A, the “binding (thermal shift), KRAS K117A” value is on record as “failed to bind”. Also, in the assay on A549 and H157 cells, the “autophagy marker p62, KRA-533 alone” value was “induced autophagy with deceased p62 level via degradation”. The “apoptotic cell death (Annexin V/PI)” value in assay [2] (0, 5, 10, 15 μM, 48 h) is recorded as “leading to apoptotic cell death”. Besides, the “sensitivity to KRAS activation, induction of apoptosis and autophagy, KRAS mutant cells versus H292” value in assay [2] (A549, H157 and Calu-1 vs H292, 48 h) is recorded as “significantly more sensitive than H292 cells without KRAS mutation”. In addition, at KRAS S17A/K117A (AA), the “binding (thermal shift), AA (S17A/K117A) KRAS” value is recorded as “failed to bind”. The “KRAS activity, cell lines bearing KRAS mutation versus without” value with KRAS (10 μM) is “enhanced KRAS activity to a greater extent in cell lines bearing KRAS mutation than in cell lines without KRAS mutation”. The “KRAS activity (GTP-KRAS pulled down by Raf-1-RBD)” value in the assay on KRAS (10 μM, human lung cancer cell lines with or without KRAS mutation) was “enhanced KRAS activity in most human lung cancer cell lines tested, except H292”. Besides, the “KRAS activity (KRAS-GTP), dose response” value in the assay on KRAS (A549, H157, Calu-1 and H292 cells, 0, 5, 10, 15 μM) was “enhanced KRAS activity in a dose-dependent manner”. Further, at GFP-tagged KRAS S17A, the “activity of exogenous GFP-tagged S17A KRAS (GFP-KRAS-GTP)” value was “activated exogenous WT and S17A”. The “binding (thermal shift), KRAS S17A” value on KRAS S17A is “could bind”. The “KRAS activity (liquid scintillation), WT KRAS” value at WT KRAS is recorded as “activated WT KRAS to increase its activity in a dose-dependent manner; also recorded: directly activated”. Also, on KRAS G13D [3], the “melting temperature (Tm) / binding, KRAS G13D” value is recorded as “Dose dependent increases in melting temperature (Tm)”. On KRAS G12D [4], the “melting temperature (Tm) / binding, KRAS G12D” value is “Dose dependent increases in melting temperature (Tm)”. Besides, the “KRAS activity (liquid scintillation), KRAS G13D” value at KRAS G13D [5] is reported as “further enhanced the activities of active KRAS mutants”. In assay [6], the LC3-II entry is listed as “dose-dependent increase of LC3-II”, the PARP cleavage entry is on record as “increased”, the “levels of pERK” value is “increased levels” and the p62 result is “dose-dependent decrease of p62”. Also, the “ratio of active caspase 3/procaspase 3” value in [6] is “increased”. Further, the “KRAS activity (liquid scintillation), KRAS G12D” value on KRAS G12D [7] is “further enhanced the activities of active KRAS mutants”.
